Results from patent US20260297105A1, “RAF-MEK PROTEIN COMPLEX MODULATORS AND METHODS OF USE THEREOF” (GANDEEVA THERAPEUTICS, INC., priority 2023, published 2026).

Key:
MEK1 = biological target: T1, MEK1 (Homo sapiens, UniProt Q02750); assay: MEK1 kinase cascade assay (ADP-Glo), inhibition of MEK1 kinase activity; assay type: biochemical; conditions: 25 nM BRAF, 6.25 nM MEK1, 0.5 μM ERK, 1 mM ATP; 20 min preincubation, 1 hr at 25° C.; read-out: BRAF ADP Glo kinase assay V3 (IC50)
T1 construct: purchased SignalChem M02-14H
T1 sequence (Q02750 whole entry): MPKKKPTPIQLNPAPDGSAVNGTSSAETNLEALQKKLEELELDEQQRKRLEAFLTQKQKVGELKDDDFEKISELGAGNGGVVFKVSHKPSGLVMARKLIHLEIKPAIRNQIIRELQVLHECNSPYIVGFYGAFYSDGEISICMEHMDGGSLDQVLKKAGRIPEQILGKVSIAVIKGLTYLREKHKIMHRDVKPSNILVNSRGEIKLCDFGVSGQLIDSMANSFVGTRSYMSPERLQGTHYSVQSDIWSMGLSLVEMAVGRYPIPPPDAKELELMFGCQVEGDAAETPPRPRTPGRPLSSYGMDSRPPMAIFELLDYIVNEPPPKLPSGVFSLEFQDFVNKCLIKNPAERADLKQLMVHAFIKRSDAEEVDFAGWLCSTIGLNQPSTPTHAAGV
T1 sequence (P15056 445-723 partner limits assumed): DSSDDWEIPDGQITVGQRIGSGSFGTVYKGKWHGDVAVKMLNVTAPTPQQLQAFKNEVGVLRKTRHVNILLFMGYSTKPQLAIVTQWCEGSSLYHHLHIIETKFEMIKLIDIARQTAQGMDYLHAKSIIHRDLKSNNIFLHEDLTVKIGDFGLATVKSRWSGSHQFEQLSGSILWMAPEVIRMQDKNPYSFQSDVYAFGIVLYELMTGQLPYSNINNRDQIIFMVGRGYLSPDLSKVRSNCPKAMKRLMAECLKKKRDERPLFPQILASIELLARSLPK
Summary of the method: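 Compounds were preincubated 20 mins at 25° C with 25 nM BRAF(445-723) in 10 mM HEPES pH 7.5, 5 mM MgCl2, 2 mM CHAPS, 1 mM DTT, then 6.25 nM MEK1, 0.5 μM ERK1 and 1 mM ATP were added for 1 hr at 25° C, with 1% DMSO. ADP-Glo luminescence was normalized to DMSO and 1 μM Trametinib; IC50 came from 4-parameter fits of duplicates.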

NCI-H292 cells = assay: Cell viability assay (CellTiter-Glo), NCI-H292; assay type: cell-based; conditions: Homo sapiens, 72 hrs, read-out: Cell Viability Assay: IC50 Determination NCI-H292
Procedure: Cell culture: HCTI 16, HT-29, and NCI-H292 cells were acquired from American Type Culture Collection (ATCC). HCT116 and HT-29 cells were maintained in ATCC-formulated McCoy's 5a Medium Modified supplemented with 10% fetal bovine serum, NCI-H292 cells were cultured in ATCC formulated RPMI-1640 supplemented with 10% fetal bovine serum. All cells were maintained at 37° C., 5% CO2.
Efficacy of exemplary compounds in inhibition of cell viability: HCT116 and HT-29 cells were plated at 4,000 cells per well and NCI-H292 cells were plated at 2,000 cells per well in their respective media in 384-well white, TC-treated plates (Corning). After 24 hours of incubation, the cells were treated with vehicle (DMSO) or test compounds (0.1% DMSO in final volume) for 72 hrs. The plate was equilibrated at room temperature for 10 mins followed by addition of a 1:1 volume of CellTiter-Glo® reagent (Promega). The contents were mixed for 2 mins on an orbital shaker to induce lysis. The plate was incubated at room temperature for 10 mins to stabilize luminescent signal before measuring luminescence on a Cytation5 microplate reader (Agilent). % inhibition as a function of compound concentration from 3 replicate wells was fit with a 4-parameter logistic curve using GraphPad Prism or CDD Vault to derive IC50 values.
In this table, for the BRAF ADP Glo kinase assay, “A” indicates IC50 of less than 5 nM; “B” indicates IC50 of between 5 nM to 50 nM; and “C” indicates IC50 of between 50 nM to 500 nM. “D” indicates IC50 of greater than 500 nM. For the BRAF-MEK TR-FRET assay, “A” indicates EC50 of less than 50 nM; “B” indicates EC50 of between 50 nM to 200 nM; and “C” indicates EC50 of between 200 nM to 1 μM. “D′” indicates EC50 of greater than 1 μM. For the AlphaLisa P-ERK assay, “A” indicates IC50 of less than 1 nM; “B” indicates IC50 of between 1 nM to 10 nM; and “C” indicates IC50 of between 10 nM to 100 nM. “D” indicates IC50 of greater than 100 nM. For the cell viability assay, “A” indicates IC50 of less than 1 nM; “B” indicates IC50 of between 1 nM to 10 nM; and “C” indicates IC50 of between 10 nM to 100 nM. “D” indicates IC50 of greater than 100 nM.

BRAF-MEK1 = assay: BRAF-MEK TR-FRET assay, stabilization of MEK1 and BRAF interaction; assay type: binding; conditions: 4 nM BRAF, 10 nM MEK, 100 μM ATP; 1 hr at 25° C.; read-out: BRAF-MEK TR-FRET Assay (EC50, fold stabilization)
Summary of the method: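 His-MEK1 (full-length, E. coli) at 10 nM with GST-BRAF at 4 nM, 1 h at 25° C in pH 7.5 Tris buffer with 5 mM MgCl2 and 100 μM ATP; anti-His-Tb/anti-GST-XL665 added for 1 h more. 665/620 FRET ratio over DMSO gives fold stabilization; EC50 from 4-parameter fit, duplicate wells.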

| SMILES | IC50 (MEK1) | IC50 (NCI-H292 cells) | EC50 (BRAF-MEK1) |
| --- | --- | --- | --- |
| CNS(=O)(=O)Nc1cccc(CN2C(=O)Oc3cc(Oc4ncco4)ccc3[C@H]2C)c1F (single isomer, unassigned) [Compound 79, (R)-3-({2-fluoro-3-(methylsulfamoyl)amino]phenyl}methyl)-4-methyl-7-(1,3-oxazol-2-yloxy)-3,4-dihydro-2H-1,3-benzoxazin-2-one or (S)-3-({2-fluoro-3-(methylsulfamoyl)amino]phenyl}methyl)-4-methyl-7-(1,3-oxazol-2-yloxy)-3,4-dihydro-2H-1,3-benzoxazin-2-one] | 5 to 50 nM | 10 to 100 nM |  |
| CNS(=O)(=O)Nc1cccc(CN2C(=O)Oc3cc(Oc4ncco4)c(F)cc3C23COC3)c1F [Compound 73] | 5 to 50 nM | 1 to 10 nM |  |
| CNS(=O)(=O)Nc1cccc(CN2C(=O)Oc3cc(Oc4ncco4)ccc3C2(C)C)c1F [Compound 74, 3-({2-fluoro-3-[(methylsulfamoyl)amino]phenyl}methyl)-4,4-dimethyl-7-(1,3-oxazol-2-yloxy)-3,4-dihydro-2H-1,3-benzoxazin-2-one] | 5 to 50 nM | 1 to 10 nM |  |
| CNS(=O)(=O)Nc1cccc(CN2Cc3ccc(OC(=O)N(C)C)cc3OC2=O)c1F [Compound 156, 3-(2-fluoro-3-((N-methylsulfamoyl)amino)benzyl)-2-oxo-3,4-dihydro-2H-benzo[e][1,3]oxazin-7-yl dimethylcarbamate] | 5 to 50 nM |  | 200 to 1000 nM |
| CNS(=O)(=O)Nc1nccc(CN2C(=O)Oc3cc(Oc4ncco4)cc(F)c3C23COC3)c1F [Compound 168, 5-fluoro-3-{[3-fluoro-2-(methylaminosulfonylamino)-4-pyridyl]methyl}-7-(1,3-oxazol-2-yloxy)-2H,3H-spiro[1,3-benzoxazine-4,3′-oxetan]-2-one] | 5 to 50 nM |  | 200 to 1000 nM |
| CNS(=O)(=O)Nc1nccc(CN2C(=O)Oc3cc(Oc4cccnn4)cc(F)c3C23CCC3)c1F [Compound 171, 5-fluoro-3-{[3-fluoro-2-(methylaminosulfonylamino)-4-pyridyl]methyl}-7-(3-pyridazinyloxy)-2H,3H-spiro[1,3-benzoxazine-4,1′-cyclobutan]-2-one] | < 5 nM |  | < 50 nM |
| CNS(=O)(=O)Nc1nccc(CN2C(=O)Oc3c(ccc(Oc4ncco4)c3F)C23CCC3)c1F [Compound 173, 8-fluoro-3-{[3-fluoro-2-(methylaminosulfonylamino)-4-pyridyl]methyl}-7-(1,3-oxazol-2-yloxy)-2H,3H-spiro[1,3-benzoxazine-4,1′-cyclobutan]-2-one] | 5 to 50 nM |  | < 50 nM |
| CNS(=O)(=O)Nc1nccc(CN2C(=O)Oc3c(ccc(Oc4cccnn4)c3F)C23CCC3)c1F [Compound 174, 8-fluoro-3-{[3-fluoro-2-(methylaminosulfonylamino)-4-pyridyl]methyl}-7-(3-pyridazinyloxy)-2H,3H-spiro[1,3-benzoxazine-4,1′-cyclobutan]-2-one] | 5 to 50 nM |  | < 50 nM |
| CNS(=O)(=O)Nc1nccc(CN2C(=O)Oc3c(ccc(Oc4nccnn4)c3F)C23CCC3)c1F [Compound 177, 8-fluoro-3-{[3-fluoro-2-(methylaminosulfonylamino)-4-pyridyl]methyl}-7-(1,2,4-triazin-3-yloxy)-2H,3H-spiro[1,3-benzoxazine-4,1′-cyclobutan]-2-one] | < 5 nM |  | < 50 nM |
| CNS(=O)(=O)Nc1nccc(CN2C(=O)Oc3cc(Oc4cccnn4)cc(F)c3C23COC3)c1F [Compound 178, 5-fluoro-3-{[3-fluoro-2-(methylaminosulfonylamino)-4-pyridyl]methyl}-7-(3-pyridazinyloxy)-2H, 3H-spiro[1,3-benzoxazine-4,3′-oxetan]-2-one] | 5 to 50 nM |  | 200 to 1000 nM |
| CN(C)S(=O)(=O)Nc1nccc(CN2C(=O)Oc3cc(Oc4ncco4)ccc3C23CCC3)c1F [Compound 179, 3-{[2-(dimethylaminosulfonylamino)-3-fluoro-4-pyridyl]methyl}-7-(1,3-oxazol-2-yloxy)-2H,3H-spiro[1,3-benzoxazine-4,1′-cyclobutan]-2-one] | 5 to 50 nM |  | 200 to 1000 nM |
| CN(C)S(=O)(=O)Nc1nccc(CN2C(=O)Oc3cc(Oc4cccnn4)ccc3C23CCC3)c1F [Compound 181, 3-{[2-(dimethylaminosulfonylamino)-3-fluoro-4-pyridyl]methyl}-7-(3-pyridazinyloxy)-2H,3H-spiro[1,3-benzoxazine-4,1′-cyclobutan]-2-one] | 5 to 50 nM |  | 200 to 1000 nM |
| O=C1Oc2c(ccc(Oc3ncco3)c2F)C2(CCC2)N1Cc1ccnc(NS(=O)(=O)C2CC2)c1F [Compound 183, (cyclopropylsulfonyl)[3-fluoro-4-({8-fluoro-7-(1,3-oxazol-2-yloxy)-2-oxo-2H,3H-spiro[1,3-benzoxazine-4,1′-cyclobutan]-3-yl}methyl)-2-pyridyl]amine] | 50 to 500 nM |  | 200 to 1000 nM |
| O=C1Oc2c(ccc(Oc3cccnn3)c2F)C2(CCC2)N1Cc1ccnc(NS(=O)(=O)C2CC2)c1F [Compound 184, (cyclopropylsulfonyl)[3-fluoro-4-({8-fluoro-2-oxo-7-(3-pyridazinyloxy)-2H,3H-spiro[1,3-benzoxazine-4,1′-cyclobutan]-3-yl}methyl)-2-pyridyl]amine] | 50 to 500 nM |  | 50 to 200 nM |
| O=C1Oc2c(ccc(Oc3nccnn3)c2F)C2(CCC2)N1Cc1ccnc(NS(=O)(=O)C2CC2)c1F [Compound 187, (cyclopropylsulfonyl)[3-fluoro-4-({8-fluoro-2-oxo-7-(1,2,4-triazin-3-yloxy)-2H,3H-spiro[1,3-benzoxazine-4,1′-cyclobutan]-3-yl}methyl)-2-pyridyl]amine] | 5 to 50 nM |  | 50 to 200 nM |
| CNS(=O)(=O)Nc1cc(F)cc(CN2C(=O)Oc3cc(Oc4cccnn4)ccc3C23CCC3)c1F [Compound 194, 3-{[2,5-difluoro-3-(methylaminosulfonylamino)phenyl]methyl}-7-(3-pyridazinyloxy)-2H,3H-spiro[1,3-benzoxazine-4,1′-cyclobutan]-2-one] | 5 to 50 nM |  | 50 to 200 nM |
| CNS(=O)(=O)Nc1cccc(CN2C(=O)Oc3cc(Oc4cccnn4)ccc3C23CC3)c1F [Compound 196, 3-{[2-fluoro-3-(methylaminosulfonylamino)phenyl]methyl}-7-(3-pyridazinyloxy)-2H,3H-spiro[1,3-benzoxazine-4,1′-cyclopropan]-2-one] | < 5 nM |  | < 50 nM |
| CNS(=O)(=O)Nc1cc(F)cc(CN2Cc3ccc(Oc4cccnn4)cc3OC2=O)c1F [Compound 200, 3-{[2,5-difluoro-3-(methylaminosulfonylamino)phenyl]methyl}-7-(3-pyridazinyloxy)-3,4-dihydro-2H-1,3-benzoxazin-2-one] | 5 to 50 nM |  | 200 to 1000 nM |
| CNS(=O)(=O)Nc1cccc(CN2C(=O)Oc3cc(Oc4cccnn4)cnc3C23CC3)c1F [Compound 201, 2′-{[2-fluoro-3-(methylaminosulfonylamino)phenyl]methyl}-6′-(3-pyridazinyloxy)-2′H,3′H-4′-oxa-2′,8′-diazaspiro[cyclopropane-1,1′-naphthalen]-3′-one] | < 5 nM |  | < 50 nM |
| CNS(=O)(=O)Nc1nccc(CN2C(=O)Oc3cc(Oc4cccnn4)cnc3C23CC3)c1F [Compound 202, 2′-{[3-fluoro-2-(methylaminosulfonylamino)-4-pyridyl]methyl}-6′-(3-pyridazinyloxy)-2′H,3′H-4′-oxa-2′,8′-diazaspiro[cyclopropane-1,1′-naphthalen]-3′-one] | < 5 nM |  | < 50 nM |
